Laboratory results taken from patent US8883798B2, “Pyrimidine compounds inhibiting the formation of nitric oxide and prostaglandin E2, method of production thereof and use thereof” (Ustav Organicke Chemie a Biochemie Akademie Ved CR, V.V.I., priority 2011, dated 2014).

How the values were obtained:
[1] = system: production of nitric oxide (NO); test: Production of nitric oxide (NO) in cultures of mouse peritoneal cells stimulated with IFN-γ plus LPS (Griess reagent); assay type: cell-based, mice; conditions: Table 3A; substance 50 μmol·l^−1; IFN-g plus LPS; 24 h
In short: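 C57BL/6 mouse peritoneal cells (2×10^6/mL) stimulated with IFN-γ (5000 pg/mL) plus LPS (100 pg/mL), compounds at 50 μmol·l^−1. Nitrite measured by Griess reagent after 24 h, expressed as % of stimulated control (set 100%); IC50 is concentration reducing NO by 50%.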

[2] = system: adjuvant arthritis in sewer rats; test: Adjuvant arthritis in female Lewis sewer rats (Freund's complete adjuvant); assay type: in vivo, sewer rats of the inbred strain Lewis; conditions: 50 mg/kg orally, Day 9 to Day 16; versus methylcellulose group
[3] = system: human umbilical vein endothelial cells (HUVEC); test: Tube formation assay of HUVEC on Matrigel (in vitro angiogenesis); assay type: cell-based; conditions: 8 h
Description: This so called “Tube Formation Assay” is a method based on the ability of endothelial cells to form capillary-like tubular structures when cultured on Matrigel™ (a gel of basement membrane extract—their natural substrate). The process of capillary-like tube formation includes endothelial cell attachment, migration, and differentiation into tubules. In this experiment, treatment with tested compounds started at the time of seeding HUVEC onto Matrigel and the extent of tubule development was observed after an 8 h time period. Disruption of tube formation was then assessed through observation of the tubular network and direct comparison to solvent-only controls. The quantitative and qualitative measurement of tubular network complexity was performed using web-based S.CORE imaging software and expressed by means of number of tubes, their total length, quality, number of branching points, etc. All these parameters were integrated into “tube formation index” which corresponds to the degree of complexity of tubular network. […] At a 10 μmol/L concentration, compound 23 reduced tube formation by >90%. […] Apoptosis in HUVECs (at ˜70% confluency) treated with or without varying concentrations (relevant for the tube formation assay) of tested substances was assessed by a combination of Annexin V and JC-1 staining. After 8 h of these treatments, cells were collected, and the cell population undergoing apoptosis was identified by double-parameter flow cytometry using annexin V and the vital dye propidium iodide (PI). Mitochondrial membrane potential in treated endothelial cells was measured using the lypophilic probe JC-1, which aggregates in healthy mitochondria and fluoresces red, but diffuses in the cytoplasm and fluoresces green upon mitochondrial damage. In both cases, quantification of apoptotic cells were conducted in BD FACSDiva software.

HUVEC = HUVEC cell proliferation (XTT assay); assay type: cell-based, human; conditions: 10 to 50 μmol/L, 8 hours
chronic colitis in mice = test: Chronic murine colitis induced by dextran sulfate sodium; assay type: in vivo, mice (Balb/c); conditions: 10 mg/kg orally, daily for 15 days
Method: Chronic colitis was induced in mice (Balb/c) by dextran sulfate sodium (DSS), used as a 3% solution in drinking water. DSS treatment was applied intermittently on the three 5-day intervals, separated by the 9-day intervals (i.e. between the DSS cycles 1/2 and 2/3) during which the mice drunk normal water.
The test compounds were given orally, suspended in 0.5% methylcellulose. The dose was 10 mg/kg. The daily dosing started immediately after the second DSS interval and lasted to the end of the 3rd DSS interval, i.e. for the duration of 15 days. At this point, the animals were sacrificed and clinical signs of colitis were examined. Except of continuous monitoring the body weight, the following parameters were evaluated: a) colon length, b) disease activity index, and c) histological grade. Three compounds were included in this experiment: nos. 19, 51, and 28. 5-Aminosalycilic acid was used as a positive reference drug. The effects were compared to the group of mice receiving placebo (0.5% methylcellulose).

[4] = system: human peripheral blood lymphocytes; test: Chromosomal aberration test in vitro; assay type: cell-based; conditions: 0.1, 0.2 and 0.5 mg/ml; with and without metabolic activation
Method: The clastogenicity potential of compound no. 28 was determined using chromosomal aberration test in vitro. The test was carried out in human peripheral blood lymphocytes both with and without metabolic activation system in two separate assays.
Three concentrations were selected for the test: 0.1, 0.2 and 0.5 mg/ml of final culture. Cells were arrested at metaphase by colchicine, harvested and slides were stained. Metaphase cells were analyzed microscopically for the presence of chromosomal aberrations. A total of 200 well-spread metaphases were examined per concentration on coded slides. Concurrent positive (thiotepa, cyclophosphamide) and negative (2% DMSO) controls were included in each experiment. […].

[5] = rat, in vivo, po, 800 mg/kg
Method: (§1) 28. The plasma samples were taken in intervals during 48 hours. […] Plasma samples were prepared by centrifugation (3500 rpm, 10 min, 4° C.), transferred into appropriately labelled and sealed Eppendorf tubes and frozen at −20° C. until transportation to analyses. The plasma was split into two aliquots. All samples were transported in a sufficient amount of dry ice to the analytical laboratory.
(§2) The analysis was performed using HPLC/MS/MS method with the use of internal deuterated standard and precipitation separation method. The analytical method used 50 μl of plasma sample for each analysis. The method was validated for concentration as low as 10.0 ng of the compound in 1 ml of plasma. A weighted liner regression was evaluated over the concentration range from 10.0-10 000.0 ng of the compound in 1 ml of plasma. Spiked plasma samples were precipitated with the solution of internal standard. The sample supernatant was analyzed on HPL/MS/MS system TSQ-03.

[6] = Pilot toxic-kinetic study, single per-oral administration; conditions: female Wistar rats; single per-oral dose 800 mg/kg; plasma
Method: as §1, §2

In the case of `CCCCc1c(Cl)nc(NC=O)nc1Cl` [Substance 51], the “Production of nitric oxide in % of the controls” value [1] is reported as 8.37 ± 2.77 % of the controls, the “Severity of adjuvant arthritis (size of contralateral paws)” value [2] is reported as “distinctive (statistically significant) reduction of the severity of the illness” and the “Effect on tube formation” value ([3]; 10 μmol/L) is reported as “only limited effect”. The Incomplete tube formation ([3]; 25 μmol/L) was ~6%, the Capillary tube formation [3] was “inhibited capillary tube formation in a dose dependent manner” and the HUVEC cell proliferation (HUVEC) was “did not influence HUVEC cell proliferation”.
For `CCCCc1c(Cl)nc(N)nc1Cl` [Substance 28], the “Production of nitric oxide in % of the controls” value [1] was 53.23 ± 5.79 % of the controls, the “Clinical signs of chronic experimental colitis” value (chronic colitis in mice) was “significantly lowers the clinical signs of chronic experimental colitis” and the “Colon length (inflammation in the gut)” value (chronic colitis in mice) was “protection against the shortening of colon”. For the same compound, the “Effectiveness compared with 5-aminosalycilic acid” value (chronic colitis in mice) was “slightly more effective than the reference drug”, the “Overall disease activity index” value (chronic colitis in mice) was “lower than in the placebo group” and the “Numerical and structural chromosome aberrations (clastogenicity)” value [4] was “did not induce an increase in numerical and structural chromosome aberrations”. The “Toxic effect in animals” value [5] was “No apparent toxic effect was observed”, the “Cmax = maximum concentration” value [6] was 337.2 ng/mL and the “Terminal elimination rate half-life” value [6] was 15.9 h.
